The results in this text go back to US20130012432A1, “Peptides for Treatment of Obesity” (Novo Nordisk A/S, priority 2010, published 2013).

pKi: −log10 of the molar value. ≈ marks a conversion by molar mass, not a printed value. Positions of bridges follow the written chain, without caps; N, C: chain ends. Non-standard residues stand in square brackets, D forms with d. Residues, ends and D or L forms follow the SMILES beside them. Groups on a side chain read outwards from the residue. *: point of attachment. Palmitoyl(16-(5-tetrazolyl)) = O=C(CCCCCCCCCCCCCCCc1nnn[nH]1)*; Lys(CH2CO2H)2 = N[C@@H](CCCCN(CC(=O)O)CC(=O)O)C(=O)O; Hyp = O=C(O)[C@@H]1C[C@@H](O)CN1; Orn = NCCC[C@H](N)C(=O)O; Dab = NCC[C@H](N)C(=O)O; AEEA = NCCOCCOCC(=O)O

One data set deals with MC1 receptor (Homo sapiens, UniProt Q01726). The data set can be described thus: biochemical. The procedure: Assay (IV)—Melanocortin Receptor 1 (MC1) Binding Assay
The MC1 receptor binding assay was performed on BHK cell membranes stably expressing the MC1 receptor. The assay was performed in a total volume of 250 μl: 25 μl of ^125NDP-α-MSH (22 pM in final concentration), 25 μl of test compound/control and 200 μl of cell membrane (25 μg/ml). Test compounds were dissolved in DMSO. Radioactively labeled ligand, membranes and test compounds were diluted in buffer: 25 mM HEPES, pH 7.4, 0.1 mM CaCl2, 1 mM MgSO4, 1 mM EDTA, 0.1% HSA and 0.005% Tween™ 20. Alternatively, HSA may be substituted with ovalbumin. The samples were incubated at 30° C. for 90 min. in Costar round-bottom microtiter plates. Incubation was terminated by filtration on a Packard harvester filtermate. Rapid filtration through Packard Unifilter-96 GF/B filters pre-treated with polyetylenimine (PerkinElmer 6005277). The filters were washed with ice-cold 0.9% NaCl 8-10 times. The plates were air-dried at app. 55° C. for 30 min, and 50 μl Microscint 0 (Packard, cat. No. 6013616) was added to each well. The plates were counted in a Topcounter (1 min/well).
The data were analysed by non-linear regression analysis of binding curves, using the Windows™ program GraphPad™ Prism (GraphPad Software, USA).

Another data set is described as follows: physchem. The procedure: From a stock solution in vehicle, either H2O or 10 mM phosphate, containing 1 mg (as weighed) compound per ml, 8-11 aliquots are withdrawn and pH-adjusted individually with HCl/NaOH, to cover the whole pH range.

Chain of MC1 receptor (Q01726 whole entry): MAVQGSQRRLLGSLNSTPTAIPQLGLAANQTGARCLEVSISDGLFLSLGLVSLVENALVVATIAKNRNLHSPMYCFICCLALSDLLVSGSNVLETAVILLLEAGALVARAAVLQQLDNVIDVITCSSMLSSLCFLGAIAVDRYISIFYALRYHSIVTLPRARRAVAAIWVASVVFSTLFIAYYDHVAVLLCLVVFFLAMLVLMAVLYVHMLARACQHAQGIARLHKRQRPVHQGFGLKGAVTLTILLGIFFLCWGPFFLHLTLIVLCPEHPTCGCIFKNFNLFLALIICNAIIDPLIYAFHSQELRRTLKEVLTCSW

The term pKi denotes the negative decadic logarithm of the Ki, by convention in mol/L. High values mean a small Ki, low ones a large Ki. What is called solubility is how much of the substance goes into solution per volume. A high value points to a readily soluble substance. With `CC(=O)N[C@H]1CCC(=O)NCCCC[C@@H](C(=O)N2CCC[C@H]2C(=O)N2CCC[C@H]2C(=O)N[C@@H](CCCNC(=N)N)C(=O)N[C@@H](CC(=O)O)C(=O)N[C@@H](CCCCN(CC(=O)O)CC(=O)O)C(=O)N[C@@H](CCCCNC(=O)COCCOCCNC(=O)CCCCCCCCCCCCCCCc2nnn[nH]2)C(N)=O)NC(=O)[C@H](Cc2c[nH]c3ccccc23)NC(=O)[C@H](CCCNC(=N)N)NC(=O)[C@@H](Cc2ccccc2)NC(=O)[C@H](Cc2c[nH]cn2)NC1=O` [Example 27, Ac-c[Glu-His-D-Phe-Arg-Trp-Lys]-Pro-Pro-Arg-Asp-Lys(biscarboxymethyl)-Lys[(2-{2-[16-(tetrazol-5-yl)hexadecanoylamino]ethoxy}ethoxy)acetyl]-NH2] (Ac-EH[dF]RWKPPRD[Lys(CH2CO2H)2]K([AEEA-Palmitoyl(16-(5-tetrazolyl))])-NH2; lactam 1-6), the pKi on MC1 receptor was under 5.00. For the same compound, the solubility in the data set “physchem” (pH 6.6, Solubility Conc.) is 42 µM (≈ 93 µg/mL); in the data set “physchem” (pH 6.9, Solubility Conc.), 65 µM (≈ 144 µg/mL); in “physchem” (pH 7.2, Solubility Conc.) it was 263 µM (≈ 582 µg/mL); in “physchem” (pH 7.3, Solubility Conc.), 394 µM (≈ 873 µg/mL); in the data set “physchem” (pH 7.4, Solubility Conc.), 459 µM (≈ 1020 µg/mL); in the data set “physchem” (pH 7.5, Solubility Conc.) it was 474 µM (≈ 1050 µg/mL). Moreover, the solubility came to 521 µM (≈ 1150 µg/mL) in the data set “physchem” (pH 7.6, Solubility Conc.); 481 µM (≈ 1070 µg/mL) in the data set “physchem” (pH 7.8, Solubility Conc.); 435 µM (≈ 963 µg/mL) in the data set “physchem” (pH 8.1, Solubility Conc.).

As to `CC(=O)N[C@H]1CCC(=O)NCC[C@@H](C(=O)N2C[C@H](O)C[C@H]2C(=O)N2C[C@H](O)C[C@H]2C(=O)N[C@@H](CCCNC(=N)N)C(=O)N[C@@H](CC(=O)O)C(=O)N[C@@H](CCCCN(CC(=O)O)CC(=O)O)C(=O)N[C@@H](CCCCNC(=O)COCCOCCNC(=O)CCCCCCCCCCCCCCCc2nnn[nH]2)C(N)=O)NC(=O)[C@H](Cc2c[nH]c3ccccc23)NC(=O)[C@H](CCCNC(=N)N)NC(=O)[C@@H](Cc2ccccc2)NC(=O)[C@H](Cc2c[nH]cn2)NC1=O` [Example 32, Ac-c[Glu-His-D-Phe-Arg-Trp-Dab]-Hyp-Hyp-Arg-Asp-Lys(biscarboxymethyl)-Lys[(2-{2-[16-(tetrazol-5-yl)hexadecanoylamino]ethoxy}ethoxy)acetyl]-NH2] (Ac-EH[dF]RW[Dab][Hyp][Hyp]RD[Lys(CH2CO2H)2]K([AEEA-Palmitoyl(16-(5-tetrazolyl))])-NH2; lactam 1-6), at MC1 receptor, the negative-log Ki (pKi) was under 5.00. For the same compound, the solubility was 40 µM (≈ 88.7 µg/mL) in the data set “physchem” (pH 6.7, Solubility Conc.); 60 µM (≈ 133 µg/mL) in the data set “physchem” (pH 7, Solubility Conc.); 89 µM (≈ 197 µg/mL) in the data set “physchem” (pH 7.2, Solubility Conc.); 258 µM (≈ 572 µg/mL) in the data set “physchem” (pH 7.5, Solubility Conc.); 324 µM (≈ 719 µg/mL) in the data set “physchem” (pH 7.6, Solubility Conc.); 640 µM (≈ 1420 µg/mL) in the data set “physchem” (pH 7.8, Solubility Conc.). Further, the solubility was 674 µM (≈ 1500 µg/mL) in “physchem” (pH 7.9, Solubility Conc.) and 230 µM (≈ 510 µg/mL) in “physchem” (pH 8.1, Solubility Conc.).

As to `CC(=O)N[C@H]1CCNC(=O)C[C@@H](C(=O)N2CCC[C@H]2C(=O)N2CCC[C@H]2C(=O)N[C@@H](Cc2c[nH]cn2)C(=O)N[C@@H](CCC(=O)O)C(=O)N[C@@H](CCCCN(CC(=O)O)CC(=O)O)C(=O)N[C@@H](CCCCNC(=O)COCCOCCNC(=O)CCCCCCCCCCCCCCCc2nnn[nH]2)C(N)=O)NC(=O)[C@H](Cc2c[nH]c3ccccc23)NC(=O)[C@H](CCCNC(=N)N)NC(=O)[C@@H](Cc2ccccc2)NC(=O)[C@H](Cc2c[nH]cn2)NC1=O` [Example 33, Ac-c[Dab-His-D-Phe-Arg-Trp-Asp]-Pro-Pro-His-Glu-Lys(biscarboxymethyl)-Lys[(2-{2-[16-(tetrazol-5-yl)hexadecanoylamino]ethoxy}ethoxy)acetyl]-NH2] (Ac-[Dab]H[dF]RWDPPHE[Lys(CH2CO2H)2]K([AEEA-Palmitoyl(16-(5-tetrazolyl))])-NH2; lactam 1-6), the pKi on MC1 receptor is under 5.00. Besides, the solubility came out at 122 µM (≈ 264 µg/mL) in “physchem” (pH 6.4, Solubility Conc.); 468 µM (≈ 1010 µg/mL) in the data set “physchem” (pH 6.6, Solubility Conc.); 485 µM (≈ 1050 µg/mL) in the data set “physchem” (pH 6.7, Solubility Conc.); 487 µM (≈ 1060 µg/mL) in the data set “physchem” (pH 6.9, Solubility Conc.); 488 µM (≈ 1060 µg/mL) in the data set “physchem” (pH 7.3, Solubility Conc.); 503 µM (≈ 1090 µg/mL) in the data set “physchem” (pH 7.5, Solubility Conc.). Besides, the solubility in the data set “physchem” (pH 7.8, Solubility Conc.) was found to be 489 µM (≈ 1060 µg/mL); in the data set “physchem” (pH 8.1, Solubility Conc.), 511 µM (≈ 1110 µg/mL); in “physchem” (pH 8.6, Solubility Conc.), 473 µM (≈ 1030 µg/mL).

With `CC(=O)N[C@H]1CCC(=O)NCCC[C@@H](C(=O)N2CCC[C@H]2C(=O)N2CCC[C@H]2C(=O)N[C@@H](CCCNC(=N)N)C(=O)N[C@@H](CC(=O)O)C(=O)N[C@@H](CCCCN(CC(=O)O)CC(=O)O)C(=O)N[C@@H](CCCCNC(=O)COCCOCCNC(=O)CCCCCCCCCCCCCCCc2nnn[nH]2)C(N)=O)NC(=O)[C@H](Cc2c[nH]c3ccccc23)NC(=O)[C@H](CCCNC(=N)N)NC(=O)[C@@H](Cc2ccccc2)NC(=O)[C@H](CCC(N)=O)NC1=O` [Example 37, Ac-c[Glu-Gln-D-Phe-Arg-Trp-Orn]-Pro-Pro-Arg-Asp-Lys(biscarboxymethyl)-Lys[(2-{2-[16-(tetrazol-5-yl)hexadecanoylamino]ethoxy}ethoxy)acetyl]-NH2] (Ac-EQ[dF]RW[Orn]PPRD[Lys(CH2CO2H)2]K([AEEA-Palmitoyl(16-(5-tetrazolyl))])-NH2; lactam 1-6), on MC1 receptor, the pKi was under 5.00. The solubility in “physchem” (pH 5.7, Solubility Conc.) came out at 95 µM (≈ 208 µg/mL); in the data set “physchem” (pH 6.4, Solubility Conc.), 464 µM (≈ 1020 µg/mL); in “physchem” (pH 6.6, Solubility Conc.), 450 µM (≈ 986 µg/mL); in “physchem” (pH 6.8, Solubility Conc.) it was 453 µM (≈ 993 µg/mL); in the data set “physchem” (pH 7, Solubility Conc.), 510 µM (≈ 1120 µg/mL); in “physchem” (pH 7.2, Solubility Conc.), 482 µM (≈ 1060 µg/mL). Besides, the solubility in the data set “physchem” (pH 7.3, Solubility Conc.) was 486 µM (≈ 1070 µg/mL); in “physchem” (pH 7.5, Solubility Conc.), 458 µM (≈ 1000 µg/mL); in “physchem” (pH 7.6, Solubility Conc.), 467 µM (≈ 1020 µg/mL); in “physchem” (pH 7.9, Solubility Conc.), 507 µM (≈ 1110 µg/mL).
